Data set [1] has as its system DMS79 cells. Description: DMS-79 SCLC tumor model in mice, anti-fucosyl-GM1 and cisplatin (Example 1). The data set is classed as in vivo, male C.B17 SCID mice. The conditions noted are these: BMS-986012 0.3 mg/kg i.p. days 7, 10, 13, 17, 21; cisplatin 3 mg/kg days 7, 14, 21, 28 (alone with isotype control antibody). On the procedure:
Median tumor volumes are presented for groups of 8 mice at each data point. See Example 1.
(§1) A combination therapy method of the present invention involving antibody to fucosyl-GM1 and cisplatin was tested in the DMS-79 SCLC tumor model in mice ([…] mice per group). Bepler et al. (1989) Oncogene 4:45; Pettengill (1980) Cancer 45: 906; Pettengill et al. (1980) Exp. Cell Biol. 48:279. Briefly, DMS79 cells were cultured in RPMI with 10% fetal bovine serum (FBS), 2 mM L-glutamine, […] sodium bicarbonate, 4.5 g/L glucose, 10 mM HEPES, and 10 μM NaPyr prior to subcutaneous implantation in the right flanks of male C.B17 SCID mice (5 million cells in 0.1 mL phosphate-buffered saline (PBS) and 0.1 mL […]® gelatinous protein mixture per flank). When tumors reached a mean or median size of 80-155 mm^3 estimated by L×W×H/2 using a digital calipers, mice were randomized into treatment groups (N=8 mice per group).
Anti-fucosyl-GM1 antibody BMS-986012 was administered at 0.3 mg/kg i.p. to mice on days 7, 10, 13, 17 and 21 post implantation, and cisplatin was administered at 3 mg/kg on days 7, 14, 21 and 28. Because fucosyl-GM1 is a ganglioside rather than a protein, and is the same in mice as in humans, there was no need to use a “mouse surrogate” for mouse studies. Cisplatin was administered in combination with BMS-986012 and with an isotype control antibody at 3 mg/kg as a control. […]

For data set [2], the system named is DMS79 cells. The experiment in a line: DMS-79 SCLC tumor model in mice, anti-fucosyl-GM1 and etoposide (Example 2). It counts as in vivo. Conditions: BMS-986012 3 mg/kg i.p. days 7, 11, 15, 18, 21; etoposide 15 mg/kg i.p. days 7, 9, 11 (alone with isotype control antibody). On the procedure:
Median tumor volumes are presented for groups of 8 mice at each data point. See Example 2.
as §1
A combination therapy method of the present invention involving antibody to fucosyl-GM1 and etoposide was tested in the DMS-79 SCLC tumor model in mice (N=9 mice per group), essentially as described in Example 1. Anti-fucosyl-GM1 antibody BMS-986012 was administered at 3 mg/kg i.p. to mice on days 7, 11, 15, 18 and 21 post-implantation, and etoposide was administered at 15 mg/kg i.p. on days 7, 9 and 11. […]

Data set [3] is described as follows: Binding of BMS-986012 to fucosyl-GM1. From the text:
(§2) BMS-986012 is a first-in-class fully human monoclonal antibody (mAb) that specifically binds to the fucosyl-GM1 ganglioside. […] Because fucosyl-GM1 is preferentially found on the surface of lung cancer cells, BMS-986012 is particularly well suited to treating lung cancer, such as small cell lung cancer (SCLC).

A short description of data set [4]: Binding to closely related molecule GM1.
Text: as §2

A further data set concerns Fc receptors. The conditions noted are these: non-fucosylated Fc domain; cited from earlier work.
The conditions of data set [5]: non-fucosylated, compared to an antibody with typical mammalian glycosylation; cited from earlier work.
The test system of data set [6] is small cell lung cancer (SCLC). Conditions: nivolumab monotherapy, 147 patients; cited from earlier work.

Take `N.N.[Cl][Pt][Cl]` [cisplatin, reference compound]: the “tumor growth (median tumor volume, FIG. 1)” value in the data set with DMS79 cells [1] is recorded as “effective as monotherapy to reduce tumor growth”.
`COc1cc([C@@H]2c3cc4c(cc3[C@@H](O[C@@H]3O[C@@H]5CO[C@@H](C)O[C@H]5[C@H](O)[C@H]3O)[C@H]3COC(=O)[C@H]23)OCO4)cc(OC)c1O` [etoposide, reference compound]: the “tumor growth (median tumor volume, FIG. 2)” value with DMS79 cells [2] is recorded as “somewhat effective as monotherapy to reduce tumor growth”.
In the case of “BMS-986012: anti-fucosyl-GM1 mAb comprising heavy chains of SEQ ID NO: 3 and light chains of SEQ ID NO: 4”, the “binding to fucosyl-GM1” value in data set [3] was “high-affinity and dose-dependent saturable binding”. Further, the “antigen-specific binding to GM1” value in data set [4] is reported as “no detectable antigen-specific binding”. For the same compound, the “tumor growth (median tumor volume, FIG. 1)” value in the data set with DMS79 cells [1] is “effective as monotherapy to reduce tumor growth”. In addition, the “affinity for Fc receptors” value in the data set on Fc receptors is listed as “higher affinity”. Moreover, the “antibody-dependent cellular cytotoxicity (ADCC)” value in data set [5] is “enhanced”. Moreover, in the data set with DMS79 cells [2], the “tumor growth (median tumor volume, FIG. 2)” value is given as “somewhat effective as monotherapy to reduce tumor growth”.
As for “nivolumab: anti-PD-1 mAb comprising heavy chains of SEQ ID NO: 13 and light chains of SEQ ID NO: 14”, in data set [6], the “published ORR” value is on record as 12% and the “published disease control rate” value is given as 29%.

The values are drawn from US20240050564A1, “COMBINATION THERAPY USING AN ANTI-FUCOSYL-GM1 ANTIBODY” (BRISTOL-MYERS SQUIBB COMPANY, priority 2021, published 2024).
